According to patent US7557101B2, “4,5,6,7-tetrahydro-thieno[3,2-c] pyridine derivatives” (Hoffman-La Roche Inc., priority 2006, dated 2009):

biological target: T1, human H3R (Homo sapiens, UniProt Q9Y5N1); assay: Competition binding assay with 3H-(R)α-methylhistamine on membranes of the human H3R-CHO cell line; conditions: competition with 3H(R)α-methylhistamine (1 nM), Ki calculated from IC50 by Cheng-Prusoff
T1 construct: expressed in transfected cells; host or cells: CHO cells
Experimental: Binding Assay with ^3H—(R)α-methylhistamine
Saturation binding experiments were performed using HR3-(CHO membranes prepared as described in Takahashi, K, Tokita, S., Kotani, H. (2003) J. Pharmacol. Exp. Therapeutics 307, 213-218.
An appropriate amount of membrane (60 to 80 μg protein/well) was incubated with increasing concentrations of ^3H(R)α-Methylhistamine di-hydrochloride (0.10 to 10 nM). Non specific binding was determined using a 200 fold excess of cold (R)α-Methylhistamine dihydrobromide (500 nM final concentration). The incubation was carried out at room temperature (in deep-well plates shaking for three hours). The final volume in each well was 250 μl. The incubation was followed by rapid filtration on GF/B filters (pre-soaked with 100 μl of 0.5% PEI in Tris 50 mM shaking at 200 rpm for two hours). The filtration was made using a cell-harvester and the filter plates were then washed five times with ice cold washing buffer containing 0.5 M NaCl. After harvesting, the plates were dried at 55° C. for 60 min, then we added scintillation fluid (Microscint 40, 40 microl in each well) and the amount of radioactivity on the filter was determined in Packard top-counter after shaking the plates for two hours at 200 rpm at room temperature.
Binding Buffer: 50 mM Tris-HCl pH 7.4 and 5 mM MgCl2×6H2O pH 7.4. Washing Buffer: 50 mM Tris-HCl pH 7.4 and 5 mM MgCl2×6H2O and 0.5 M NaCl pH 7.4.
Indirect measurement of affinity of H3R inverse agonists: twelve increasing concentrations (ranging from 10 μM to 0.3 nM) of the selected compounds were always tested in competition binding experiments using membrane of the human H3R—CHO cell line. An appropriate amount of protein, e.g. approximately 500 cpm binding of RAMH at Kd, were incubated for 1 hour at room temperature in 250 μl final volume in 96-well plates in presence of ^3H(R)α-methylhistamine (1 nM final concentration=Kd). Non-specific binding was determined using a 200 fold excess of cold (R)α-methylhistamine dihydrobromide.
All compounds were tested at a single concentration in duplicate. […] The concentration at which 50% inhibition of the radioligand ^3H(R)α-methylhistamine is obtained (the IC50) is determined from the linear regression of a plot of the logarithm of the concentration versus percent inhibition measured for the different concentrations. Ki's were calculated from IC50 based on Cheng-Prusoff equation (Cheng, Y, Prusoff, W H (1973) Biochem Pharmacol 22, 3099-3108): Ki=IC50/[1+D/Kd] wherein D is the concentration of the radioligand and Kd is the binding constant for the radioligand binding to the receptor under the conditions used in the competition experiment.

T1 sequence (Q9Y5N1 whole entry): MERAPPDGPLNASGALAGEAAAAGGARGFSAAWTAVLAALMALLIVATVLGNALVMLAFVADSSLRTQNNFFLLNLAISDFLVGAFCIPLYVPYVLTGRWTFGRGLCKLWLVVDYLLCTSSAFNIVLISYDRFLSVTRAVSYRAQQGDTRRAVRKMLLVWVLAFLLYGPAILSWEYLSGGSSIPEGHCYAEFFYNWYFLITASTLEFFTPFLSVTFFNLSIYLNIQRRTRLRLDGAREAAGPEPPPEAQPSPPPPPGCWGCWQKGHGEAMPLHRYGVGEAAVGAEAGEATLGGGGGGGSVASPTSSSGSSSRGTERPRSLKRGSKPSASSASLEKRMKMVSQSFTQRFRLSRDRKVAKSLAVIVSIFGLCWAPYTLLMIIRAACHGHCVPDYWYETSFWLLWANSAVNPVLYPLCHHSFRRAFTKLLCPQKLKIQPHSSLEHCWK

Ki [nM] | Structure (SMILES)
27.3 | Cc1ccccc1S(=O)(=O)N1CCc2sc(OCCCN3CCCC3)cc2C1 [Example 56, 2-(3-pyrrolidin-1-yl-propoxy)-5-(toluene-2-sulfonyl)-4,5,6,7-tetrahydro-thieno[3,2-c]pyridine]
21.7 | CC1CCC(CC(=O)N2CCc3sc(OC4CCN(C(C)C)C4)cc3C2)CC1 (centres unmarked) [Example 90, 1-[2-(1-isopropyl-pyrrolidin-3-yloxy)-6,7-dihydro-4H-thieno[3,2-c]pyridin-5-yl]-2-(4-methyl-cyclohexyl)-ethanone]
44.4 | CCCC(=O)N1CCc2sc(OCCCN3CCCCC3)cc2C1 [Example 33, 1-[2-(3-piperidin-1-yl-propoxy)-6,7-dihydro-4H-thieno[3,2-c]pyridin-5-yl]-butan-1-one]
31.7 | O=C(NCc1ccccc1)N1CCc2sc(OCCCN3CCCC3)cc2C1 [Example 48, 2-(3-pyrrolidin-1-yl-propoxy)-6,7-dihydro-4H-thieno[3,2-c]pyridine-5-carboxylic acid benzylamide]
35.7 | O=C(N1CCOCC1)N1CCc2sc(OCCCN3CCCCC3)cc2C1 [Example 1, Morpholin-4-yl-[2-(3-piperidin-1-yl-propoxy)-6,7-dihydro-4H-thieno[3,2-c]pyridin-5-yl]-methanone]
